The target in one experiment is T1, Protein Mdm4 (Homo sapiens, UniProt O15151).
T1 sequence (O15151 whole entry): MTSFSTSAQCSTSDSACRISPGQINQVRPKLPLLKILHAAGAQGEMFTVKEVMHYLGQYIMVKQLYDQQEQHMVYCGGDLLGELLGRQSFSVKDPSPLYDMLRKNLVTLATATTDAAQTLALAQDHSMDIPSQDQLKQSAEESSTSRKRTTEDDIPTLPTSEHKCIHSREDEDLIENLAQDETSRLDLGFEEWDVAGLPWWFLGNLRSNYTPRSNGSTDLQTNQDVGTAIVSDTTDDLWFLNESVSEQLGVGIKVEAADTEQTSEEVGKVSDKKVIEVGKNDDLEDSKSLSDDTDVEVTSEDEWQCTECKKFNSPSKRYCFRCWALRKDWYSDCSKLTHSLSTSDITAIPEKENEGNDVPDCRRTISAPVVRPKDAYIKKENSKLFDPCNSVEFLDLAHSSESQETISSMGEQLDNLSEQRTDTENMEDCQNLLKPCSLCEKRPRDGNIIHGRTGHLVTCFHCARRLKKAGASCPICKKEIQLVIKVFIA
Briefly: biochemical.

In the next experiment the test system is RKO. Briefly: Antiproliferative activity against human RKO cells harboring p53 assessed inhibition of cell growth incubated for 4 days by CCK-8 assay. The conditions noted are these: 96 h. For orientation: Tetrazolium assays rely on reduction of a dye to a coloured formazan, in cell work by metabolically active cells.
Experiment [1] concerns HCT-116. Briefly: Antiproliferative activity against human HCT-116 cells harboring p53 assessed inhibition of cell growth incubated for 4 days by CCK-8 assay. Particulars: HCT-116, 96 h.
Experiment [2] deals with HCT-116. Put plainly: Antiproliferative activity against human HCT-116 cells harboring p53 assessed inhibition of cell growth incubated for 4 days by celltiter-glo assay. Particulars: HCT-116, 96 h. On the technique in general: In ATP-based viability assays light output follows the ATP content of the culture.
The target in experiment [3] is Tumour suppressor protein p53/Mdm4 (Homo sapiens, UniProt O15151). Briefly: Binding affinity to MDM4/p53 (unknown origin) assessed as inhibition constant by FP assay.
Tumour suppressor protein p53/Mdm4, sequence (P04637 whole entry, one chain of several): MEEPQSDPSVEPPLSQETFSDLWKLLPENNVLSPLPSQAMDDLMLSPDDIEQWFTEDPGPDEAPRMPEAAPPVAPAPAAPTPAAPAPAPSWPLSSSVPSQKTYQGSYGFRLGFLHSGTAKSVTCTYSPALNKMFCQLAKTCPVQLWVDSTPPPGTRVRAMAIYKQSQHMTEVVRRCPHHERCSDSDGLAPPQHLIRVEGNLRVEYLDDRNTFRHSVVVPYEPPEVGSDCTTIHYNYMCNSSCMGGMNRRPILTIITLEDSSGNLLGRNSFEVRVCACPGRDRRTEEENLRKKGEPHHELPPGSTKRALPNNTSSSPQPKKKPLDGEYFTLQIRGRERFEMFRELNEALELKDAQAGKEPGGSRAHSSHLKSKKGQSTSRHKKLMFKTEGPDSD
Experiment [4] deals with Tumour suppressor p53/oncoprotein Mdm2 (Homo sapiens, UniProt Q00987). Put plainly: Binding affinity to MDM2/p53 (unknown origin) assessed as inhibition constant by FP assay.
Tumour suppressor p53/oncoprotein Mdm2, sequence (P04637 whole entry): as the sequence (P04637 whole entry, one chain of several) above
Tumour suppressor p53/oncoprotein Mdm2, sequence (Q00987 whole entry): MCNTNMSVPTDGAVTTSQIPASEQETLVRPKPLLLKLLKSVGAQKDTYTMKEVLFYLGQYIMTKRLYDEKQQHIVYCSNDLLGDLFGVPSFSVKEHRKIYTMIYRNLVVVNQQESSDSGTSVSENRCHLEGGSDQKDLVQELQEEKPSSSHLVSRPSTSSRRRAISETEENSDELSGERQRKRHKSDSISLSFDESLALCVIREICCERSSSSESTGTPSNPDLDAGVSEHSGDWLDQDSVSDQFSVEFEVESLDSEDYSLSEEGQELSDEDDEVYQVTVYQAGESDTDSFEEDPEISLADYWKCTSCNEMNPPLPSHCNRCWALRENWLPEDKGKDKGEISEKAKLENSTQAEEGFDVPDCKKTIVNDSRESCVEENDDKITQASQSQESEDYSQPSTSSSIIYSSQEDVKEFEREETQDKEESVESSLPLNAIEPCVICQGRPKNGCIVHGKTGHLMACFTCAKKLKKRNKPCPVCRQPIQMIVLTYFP
The next experiment deals with U2OS. Put plainly: Antiproliferative activity against human U2OS cells harboring p53 assessed inhibition of cell growth incubated for 4 days by celltiter-glo assay. Particulars: 96 h.
A further experiment relates to NCI-H460. Briefly: Growth inhibition of human NCI-H460 cells harboring p53 incubated for 4 days by CCK-8 assay. The conditions noted are these: NCI-H460, 96 h.
A further experiment deals with SW480. Put plainly: Growth inhibition of human SW480 cells incubated for 4 days by CCK-8 assay. Particulars: SW480, 96 h.
Another experiment concerns HeLa. Briefly: Growth inhibition of human HeLa cells harboring p53 incubated for 4 days by CCK-8 assay. The conditions noted are these: 96 h.
The test system of another experiment is HepG2. Put plainly: Growth inhibition of human HepG2 cells harboring p53 incubated for 4 days by celltiter glo assay. The conditions noted are these: HepG2, 96 h.
A further experiment deals with A549. Briefly: Growth inhibition of human A549 cells harboring p53 incubated for 4 days by CCK-8 assay. The conditions noted are these: A549, 96 h.
In a further experiment the test system is MSTO-211H. Put plainly: cells. The conditions noted are these: Homo sapiens, 96 h.

The values below come from ChEMBL document CHEMBL5375985, “Discovery of JN122, a Spiroindoline-Containing Molecule that Inhibits MDM2/p53 Protein-Protein Interaction and Exerts Robust In Vivo Antitumor Efficacy” (J Med Chem, 2023).

Description for MSTO-211H: Growth inhibition of human MSTO-211H cells harboring p53 incubated for 4 days by CCK-8 assay
Description for Protein Mdm4: Inhibition of MDM4 (14 to 111 residues)/p53 (unknown origin) interaction expressed in Escherichia coli BL21(DE3) cells assessed as inhibition constant incubated for 1.5 hrs by competitive fluorescence polarization assay

With `CNC(=O)c1ccc(NC(=O)[C@@H]2N[C@@H](CC(C)(C)C)[C@@]3(CNc4cc(Cl)ccc43)[C@H]2c2cccc(Cl)c2F)c(OC)c1`, the Ki – broadly, the dissociation constant of the complex between target and ligand, obtained from inhibition or displacement – on Protein Mdm4 is more than 0.027 µM. Also, the IC50 (in general, the midpoint of a concentration-inhibition curve) in the experiment on RKO turned out to be 0.243 µM; with HCT-116 [1] it was 0.022 µM.
Consider `COc1cc(C(=O)O)ccc1NC(=O)[C@@H]1N[C@@H](CC(C)(C)C)[C@@]2(CNc3cc(Cl)ccc32)[C@H]1c1cccc(Cl)c1`, for which the IC50 in the experiment on HCT-116 [2] was less than 0.001 µM; in the experiment on RKO, 0.0129 µM.
For `O=C1CN(C(=O)N2C(c3ccc4c(c3)C(=O)NCC(=O)N4c3ccccc3)=N[C@@H](c3ccc(Cl)cc3)[C@H]2c2ccc(Cl)cc2)CCN1`, the Ki came out at 0.0108 µM in experiment [3] and 0.0021 µM in experiment [4].
`CCN1[C@@H](CC(C)(C)C)[C@@]2(CNc3cc(Cl)ccc32)[C@@H](c2ccccc2F)[C@@H]1C(=O)Nc1ccc(C(=O)O)cc1OC`: the IC50 with U2OS stood at 3.41 µM; with RKO, 2.94 µM; with HCT-116 [1] it was 0.865 µM.
Consider `COc1cc(C(=O)O)ccc1NC(=O)[C@@H]1N[C@@H](CC(C)(C)C)[C@@]2(CNc3cc(Cl)ccc32)[C@H]1c1cccc(C)c1`, for which the IC50 is 0.436 µM in the experiment on RKO and 0.01 µM in the experiment on HCT-116 [1].
The like results for `COc1cc(C(=O)O)ccc1NC(=O)[C@@H]1N[C@@H](CC(C)(C)C)[C@@]2(CNc3cc(Cl)ccc32)[C@H]1c1cccc(F)c1` were, in that order, 0.0669 µM and 0.0013 µM.
On to `COc1ccc(C2=N[C@@H](c3ccc(Cl)cc3)[C@@H](c3ccc(Cl)cc3)N2C(=O)N2CCNC(=O)C2)c(OC(C)C)c1` [NUTLIN-3], for which the half-inhibitory concentration (IC50) in the experiment with NCI-H460 worked out at 0.00649 µM; in the experiment with SW480, 0.0241 µM; in the experiment on RKO, 1.92 µM; in the experiment on HeLa it was 0.0282 µM; with HepG2 it was 2.05 µM; in the experiment with A549, 1.88 µM. The IC50 with HCT-116 [1] is 1.04 µM; in the experiment on MSTO-211H it was 2.8 µM.
`CCN1[C@@H](CC(C)(C)C)[C@@]2(CNc3cc(Cl)ccc32)[C@@H](c2cccc(Cl)c2Cl)[C@@H]1C(=O)Nc1ccc(C(=O)O)cc1OC`: the IC50 in the experiment with U2OS was determined as 0.647 µM; with RKO, 0.33 µM; in the experiment on HCT-116 [1] it was 0.0755 µM.
The like results for `CCN1[C@@H](CC(C)(C)C)[C@@]2(CNc3ccc(Cl)cc32)[C@@H](c2cccc(Cl)c2Cl)[C@@H]1C(=O)Nc1ccc(C(=O)O)cc1OC` were, in that order, 1.84 µM, 4.43 µM and 1.4 µM.
On the same counts, the results for `CCN1[C@@H](CC(C)(C)C)[C@@]2(CNc3cc(Cl)ccc32)[C@@H](c2cccc(F)c2)[C@@H]1C(=O)Nc1ccc(C(=O)O)cc1OC` are 0.304 µM, 0.172 µM and 0.0257 µM.
On to `CCN1[C@@H](CC(C)(C)C)[C@@]2(CNc3cc(Cl)ccc32)[C@@H](c2ccccc2Cl)[C@@H]1C(=O)Nc1ccc(C(=O)O)cc1OC`, for which the IC50 turned out to be 2.82 µM with U2OS, 5.24 µM in the experiment with RKO and 2.04 µM in the experiment on HCT-116 [1].
The like results for `CCN1[C@@H](CC(C)(C)C)[C@@]2(CNc3cc(Cl)ccc32)[C@@H](c2cccc(C)c2)[C@@H]1C(=O)Nc1ccc(C(=O)O)cc1OC` were, in that order, 0.625 µM, 1.01 µM and 0.144 µM.
